One assay relates to myofibroblast formation. The settings on record: capsular contracture with breast implants, Ajmal et al. (2003); cited from earlier work.
For the next assay, the system named is fibrinolysis. Description: prevention / reversal of fibrinolysis. The settings on record: one tenth of the doses used in the non-GLP acute porcine study.

`O=S(=O)([O-])CCS.[Na+]` [MESNA, sodium 2-mercaptoethane sulfonate]: the myofibroblast formation entry in the assay on myofibroblast formation was “diminish myofibroblast formation”.

Take `NC[C@H]1CC[C@H](C(=O)O)CC1` [tranexamic acid, trans-4-(aminomethyl)cyclohexanecarboxylic acid]: the “effect in reversing fibrinolysis” value with fibrinolysis was “effective in reversing fibrinolysis”.

Values taken from US20220211477A1, “SURGICAL SYSTEM AND METHODS OF USE” (priority 2021, published 2022).
